1 sequence from patent publication US9121022B2, “Method for controlling herbicide-resistant plants” (priority 2010, dated 2015) can be followed below.

The test system of data set [1] is Nicotiana benthamiana phytoene desaturase. The data set can be described thus: topical PDS oligonucleotides/polynucleotides on tobacco, bleaching and chlorophyll (Example 10). The settings on record: another assay. In kind it is in vivo. The text has this: The target gene used was a Nicotiana benthamiana phytoene desaturase (SEQ ID NO:2), shown in FIG. 10; the segment consisting of nucleotides 421-1120 of SEQ ID NO:2 (underlined text in FIG. 10) was used to design a 700-mer dsRNA polynucleotide (“PDS 700-mer”) and the segment consisting of nucleotides 914-1113 of SEQ ID NO:2 (bolded underlined text in FIG. 10) was used to design a 200-mer dsRNA polynucleotide (“PDS 200-mer”). FIG. 11 schematically depicts the location of the sequences of these oligonucleotides and polynucleotides in relation to the […] (SEQ ID NO:2) sequence. Non-plant sequences obtained from corn rootworm (“CRW”), SEQ ID NOs:27, 28, 29, and 30 were used as non-homologous controls. Some of the polynucleotides included a T7 promoter sequence (indicated by lower-case text in Table 3) that is a promoter recognized by a bacteriophage T7 RNA polymerase.
The following procedure was used for all assays described in this example. Four-week old Nicotiana benthamiana plants were used in all assays. Plants were treated with 0.1% SILWET L-77® brand surfactant solution freshly made with ddH2O. Two fully expanded leaves per plant (one cotyledon, one true leaf) were dipped into the SILWET L-77® brand surfactant solution for a few seconds, and allowed to dry for 15-30 minutes before application of the polynucleotide composition. Final concentration for each oligonucleotide or polynucleotide was 25 microM (in 0.01% SILWET L-77® brand surfactant, 5 mM sodium phosphate buffer, pH 6.8) unless otherwise stated. 20 microliters of the solution was applied to the top surface of each of the two pre-treated leaves to provide a total of 40 microliters (1 nmol oligonucleotide or polynucleotide) for each plant. Leaf bleaching was observed 3 days post treatment.
FIG. 13 illustrates phenotypes observed at day 12 after treatment in another assay of the effect from twelve combinations of polynucleotides or oligonucleotides (see Table 4). Table 4 also lists observations of visible bleaching of the plants at day 5 after treatment and the results of chlorophyll measurements taken at days 7 and 12 after treatment. Chlorophyll measurements are an indication of suppression of the target gene phytoene desaturase, and measurements were taken at 6 spots on the apical area, focussing on visibly bleached leaves or (in plants without visible bleaching) on leaves in equivalent locations on the plants; lower chlorophyll measurement values indicate suppression of phytoene desaturase.

Data set [2] has as its system endogenous Nicotiana benthamiana Argonaute-1 (AGO1) gene. The data set can be described thus: AGO1 anti-sense polynucleotides with or without PDS anti-sense polynucleotide, systemic bleaching (Example 33). Type of data set: in vivo. Particulars: PDS 25 nanomoles; AGO1 50 nanomoles of each of 14 polynucleotides; applied on separate leaves. The text has this: A second set of experiments was designed to investigate the effects of silencing a component of the endogenous RNAi silencing pathway in a plant. Argonaute (AGO) proteins are components of the RNA-induced silencing complex (RISC) which binds small RNAs in the RNAi silencing process. Suppression of Argonaute would be expected to reduce the observed phenotypic effect caused by an RNAi silencing process. AGO1 anti-sense polynucleotides with the sequences […] (HL510, SEQ ID NO:300), […] (HL511, SEQ ID NO:301), […] (HL512, SEQ ID NO:302), […] (HL513, SEQ ID NO:303), […] (HL514, SEQ ID NO:304), […] (HL515, SEQ ID NO:305), […] (HL516, SEQ ID NO:306), […] (HL517, SEQ ID NO:307), […] (HL518, SEQ ID NO:308), […] (HL519, SEQ ID NO:309), […] (HL520, SEQ ID NO:310), […] (HL521, SEQ ID NO:311), […] (HL522, SEQ ID NO:312), […] (HL523, SEQ ID NO:313) were designed for the endogenous Nicotiana benthamiana Argonaute-1 (AGO1) gene, based on two Nicotiana benthamiana AGO1-2 partial cDNA sequences, • […] […] […] […] […] […] […] […] […] […] […] […] […] […] […] […] […] […] […] […] […] […] […] […] […] […] […] […] […] […] […] […] […] […] […] […] […] […] […] […] […] […] […] GC (SEQ ID NO:314) and • […] […] […] […] […] […] […] […] […] […] […] […] […] […] […] […] […] […] […] […] […] […] […] […] […] […] […] […] […] […] […] […] […] […] […] […] […] […] […] […] […] […] […] […] […] […] […] […] (SEQ ID NO:315).
Nicotiana benthamiana plants were treated using a procedure similar to that described in Example 12. […]

In the case of “CATCTCCTTTAATTGTACTGC (DNA, backbone not given here) [PDS 21-mer anti-sense ssDNA]”, the “bleaching of apical leaves (FIG. 15)” value in data set [1] is given as “apical leaf bleaching observed”. In addition, the “systemic bleaching / difference to buffer” value in data set [2] was “displayed systemic bleaching”.
